US10428151B2, “Treatment of hematologic malignancies with an anti-CXCR4 antibody” (BRISTOL-MYERS SQUIBB COMPANY, priority 2011, dated 2019)
“And” between values parts separate entries of the source, which are not always exact repeats. Equal values may be shown once.

Key:
parental R1610 cells = assay: Apoptosis of parental R1610 cells, Annexin V-FITC/PI; type: cell-based, hamster; conditions: 24 hours
Experimental: MDX-1338 or isotype control were added to CXCR4-transfected cells (A) or R1610 parental cells (B) and stained with Annexin V-FITC and PI. The percentages of cells that were positive for Annexin V only or doubly positive for both Annexin V and PI double positive are illustrated.
The percent of cells that are positive for Annexin V only or both Annexin V and PI double positive was determined.

[1] = tested on: MDA-MB231 human breast cancer cells; assay: MDA-MB231 breast cancer xenograft; type: in vivo, mouse
From the text: In one experiment, 7.5×10^6 MDA-MB231 human breast cancer cells/mouse were implanted into the flank region of each mouse and allowed to grow to a mean size of 100 mm^3, calculated by length×width×height/2 of the tumors, which was day 7 post-implantation. The mice were randomized into different treatment groups and received an intraperitoneal (IP) injection of a first dose of antibody on day 7 post-implantation, received a second IP dose of antibody on day 14 post-implantation and then received a third dose on day 46 post-implantation. […] Tumor volumes were measured at regular intervals and the mean and median tumor volume determined for each treatment group at each interval.

Ramos cells [2] = assay: Ramos lymphoma xenograft in SCID mice; type: in vivo
Experimental: When a mean and median tumor size of 80 mm^3 was reached, the mice were randomized (n=8) according to tumor volume. […] Tumors and body weights were measured twice weekly. Tumor volumes were measured in three dimensions (L×W×H/2) with a Fowler Electronic Digital Caliper (Model 62379-531; Fred V. Fowler Co., Newton, Mass.), and data was electronically recorded using Study Director software from StudyLog Systems, Inc. (South San Francisco, Calif.). Animals were checked daily for postural, grooming, and respiratory changes, as well as lethargy. Mice were euthanized when the tumors reached the 2000 mm^3 endpoint or appeared ulcerated.

[3] = tested on: SU-DHL-6 B cell lymphoma cells; assay: SU-DHL-6 subcutaneous xenograft; type: in vivo, mouse
Experimental: (§1) Additional subcutaneous xenograft tumor models were tested for the ability of anti-CXCR4 antibodies to inhibit tumor growth, in experiments similar to those described above and in Example 9. […] Although the tumor cells in vivo were stainable by the mAb by immunohistochemistry, it is unclear at what stage of their tumor growth CXCR4 began to be expressed.

melanoma = melanoma xenograft model; compared to vehicle-treated mice; Roccaro et al., 2012; cited from earlier work
RPMI-8226 cells = assay: RPMI-8226 MM xenograft in SCID mice; type: in vivo
Experimental: The mice were randomized (n=8) when the tumor volume reached approximately 20 mm^3, dosed on Days 0, 3, 7, 10 and 14 with MDX-1338 (10 mg/kg/dose) alone or in combination with 50 mg/kg lenalidomide or in combination with 0.8 mg/kg bortezomib.

Ramos cells [4] = assay: Ramos cell proliferation, Cell-Titer-Glo; type: cell-based, human; conditions: 40 nM; 72 hours; compared to isotype control
Experimental: Ramos cells were suspended at 1×10^5 cells/mL in growth media, incubated with the relevant antibodies, including isotype controls, and other test agents and cultured for 72 hours at 37° C. Cell-Titer-Glo (Promega) was added to wells, mixed, and incubated at room temperature for 10 minutes. The plate was read on a GloMax Luminometer (Promega).

CLL cells = conditions: 2-200 nM; Kashyap et al., 2012; cited from earlier work
[5] = tested on: human umbilical vein endothelial cells (HuVEC); assay: HuVEC capillary tube formation; type: cell-based; conditions: HuVEC on MATRIGEL, 18 hours
Experimental: In this example, the ability of the anti-CXCR4 human antibodies to inhibit capillary tube formation by human umbilical vein endothelial cells (HuVEC) was examined […]® was diluted 1:1 with RPMI and plated onto the wells of a 96 well plate and allowed to polymerize for 30 minutes at 37° C. HuVEC (from Cambrex, cat. # CC-2519) at 80% confluence were trypsinized and resuspended at 1×10^6 cells per ml in RPMI with 0.5% FBS. Antibodies were well mixed with HuVEC at a final concentration of 3 mg/ml and allowed to incubate at room temperature for 30 minutes. An irrelevant antibody of the same isotype or media alone was used as a negative control. As a positive control of inhibition of tube formation, a mouse anti-human αvβ3 (CD51/CD61) antibody (R&D Systems, cat. # MAB3050) was used. HuVEC with or without antibodies were plated onto the […]®-coated wells and incubated at 37° C. for 18 hours.
The HuVEC incubated with media alone or with the isotype-matched control antibody formed capillary tubes resulting in the appearance of connected cells across the plate with 3-5 points of connection or branch points per cell. […] The cells appeared isolated and with few or no branch points.

[6] = tested on: Twist, Snail, Slug, E-Cadherin; conditions: Roccaro et al., 2012; cited from earlier work
[7] = tested on: NIH-H226 lung carcinoma cells; assay: NIH-H226 subcutaneous xenograft; type: in vivo, mouse
Experimental: as §1

MM cells [8] = assay: Apoptotic and CXCL12 signalling pathways in MM cells; type: cell-based
From the text: The BMS936564 antibody targeted MM cells in the context of BM milieu by overcoming BMSC-induced proliferation of tumor cells. […] Importantly, as described in Example 16, BMS936564 inhibited MM cell proliferation in vivo in xenograft mouse models.

MM cells [9] = conditions: Roccaro et al., 2012; cited from earlier work
MOLP-8 cells = assay: MOLP-8 MM xenograft in SCID mice; type: in vivo
Experimental: In all the experiments, the mice were injected intraperitoneally on Days 0 and 7 with an IgG4 isotype control and a PBS vehicle control.

primary MM cells = conditions: Roccaro et al., 2012; cited from earlier work
MM.1S cells = assay: MM.1S MM xenograft in SCID mice; type: in vivo
[10] = Day 59 post-implantation, 15 mg/kg IP

Substance: BMS-936564: fully human anti-CXCR4 monoclonal antibody; VH SEQ ID NO: 25, VL SEQ ID NO: 29
- apoptosis of parental R1610 cells (parental R1610 cells): did not exhibit apoptosis
- Mean tumor volume ([1]; Day 52 post-implantation, 15 mg/kg IP): 79 mm^3
- Median tumor volume [1, 10]: 108 mm^3
- TGI (%) (median) [1, 10]: 52%
- mice tumor free ([1]; day 59, n=9): one
- time the inhibition was maintained (Ramos cells [2]; 15 mg/kg/dose IP Days 0 and 7): 60 days
- median growth inhibition (Ramos cells [2]; Day 21, 15 mg/kg/dose IP Days 0 and 7): 99%
- % Tumor Growth Inhibition (Monotherapy) (Ramos cells [2]; Ramos): 80%
- % Tumor Growth Inhibition (Monotherapy) ([3]; DHL6): 55% and 77%
- tumor growth inhibition ([3]; SU-DHL-6, 15 mg/kg): approximately 60%
- number of metastasis (melanoma): reduced number of metastasis
- delay of mean tumor growth (RPMI-8226 cells; Day 44, 10 mg/kg/dose, compared to vehicle control): 53%
- mean tumor growth inhibition (RPMI-8226 cells; Day 44, compared to isotype control, MDX-1338 10 mg/kg, lenalidomide 50 mg/kg, bortezomib 0.8 mg/kg): 61%
- tumor growth inhibition (RPMI-8226 cells; RPMI-8226): MDX-1338 = 61%
- maximum inhibition of Ramos cell proliferation (Ramos cells [4]): about 50%
- cell death in CLL cells cultured alone and in the MRD model (CLL cells): induced cell death
- inhibition of capillary tube formation [5]: most effective in inhibiting capillary tube formation
- effect on EMT-related proteins [6]: inhibits the EMT-related proteins Twist, Snail and Slug, and up-regulates E-Cadherin
- tumor growth inhibition [7]: no tumor growth inhibition
- CXCL12-induced ERK-, Aid-, and Src-phosphorylation (MM cells [8]): inhibited by BMS936564 in a dose-dependent manner
- activation of apoptotic pathways in MM cells (MM cells [8]): cleavage of caspase-9 and PARP
- migration of MM cells toward CXCL12 and primary MM BMSCs (MM cells [9]): inhibited migration
- delay of mean tumor growth (MOLP-8 cells; Day 25, 10 mg/kg/dose, compared to isotype antibody control, 10 mg/kg): 66% and 56%
- tumor growth inhibition (MOLP-8 cells; MOLP8): MDX-1338 = 56%
- % Tumor Growth Inhibition (Monotherapy) (MOLP-8 cells; MOLP-8): 66%
- mice remained at end of study (MOLP-8 cells; day 42): 5 out of 8
- adhesion of primary MM cells to BMSCs (primary MM cells): inhibited by BMS936564 in a dose-dependent manner
- mean tumor growth inhibition (MM.1S cells; Day 25, compared to isotype control, MDX-1338 10 mg/kg/dose, lenalidomide 100 mg/kg): 60%
- % Tumor Growth Inhibition (Monotherapy) (MM.1S cells; MM.1S): 49%
- tumor growth inhibition (MM.1S cells; MM.1S): MDX-1338 = 60%
